Where “and” joins values, the source holds several entries; their conditions need not be identical. Equal entries are not always repeated. Where two headings read alike, the source gives them in different places.
Key:
[1] = system: CD19+CD11b+ and CD19+CD11b− cardiac lymphocytes; assay: Transcriptional profiling (RNAseq, KEGG) of sorted cardiac B lymphocytes; assay type: in vivo, mouse; conditions: DTR+PFD hearts vs naïve
Description: To gain insight into the mechanism(s) responsible for the immunomodulatory effects of Pirfenidone, we performed transcriptional profiling on CD19+CD11b+ and CD19+CD11b− cardiac lymphocytes that were FACS sorted from naïve, DT-injured mice fed normal chow, and DT-injured mice treated with Pirfenidone chow. […]
We performed transcriptional profiling of cardiac lymphocytes that were isolated from naïve and DTR injured hearts in the presence and absence of Pirfenidone. […] Single-end, 50 bp reads were obtained on an Illumina HiSeq 3000 and aligned to the IIlumina iGenomes GRCm38_Ensembl release of the mouse transcriptome using Tophat2.1(41), yielding an average of 1.8×107 aligned reads per sample. Gene-level quantitation was performed using HTSeq 2(42). mRNAs were included in downstream analyses if present in all biological replicates in any of the 6 experimental groups (CD19+CD11b+ and CD19+CD11b− from WT, DT and DT+PFD) at an abundance of at least 1 read per million. […] KEGG pathways within the following 3 categories were analyzed: signal transduction (3.2), signaling molecules and interactions (3.3), and immune system (5.1).

[2] = Plasma pharmacokinetics after IV or PO administration; assay type: in vivo, SD Rat; conditions: SD Rat
Description: Pirfenidone and Pegyonde-6 were administered at equimolar concentrations to rats IV or per os (PO) and serum concentrations measured at different time points to measure pharmacokinetic parameters. The drugs were solubilized in 5% Alcohol+20% PEG 300 in saline.

[3] = IV 40 mg/kg, individual rats 1-3, 40 mg/kg
[4] = PO 40 mg/kg, individual rats 7-9, 40 mg/kg

SMILES: Cc1ccc(=O)n(-c2ccccc2)c1 [Pirfenidone, 5 methyl-1-phenyl-2-[H] pyridone]
- KEGG pathways enriched after DT injury in CD19+CD11b+ lymphocytes ([1]; 6 pathways): not activated
- KEGG pathways enriched after DT injury in CD19+CD11b− lymphocytes ([1]; with the exception of the hematopoietic cell lineage pathway): none of these pathways was significantly enriched
- AUMC0-t, Mean ([2]; IV 40 mg/kg): 11482 h*h*ng/mL
- AUMC0-∞, Mean ([2]; IV 40 mg/kg): 11490 h*h*ng/mL
- CL(/F), Mean ([2]; IV 40 mg/kg): 28.87 mL/min/kg
- Vss (/F), Mean ([2]; IV 40 mg/kg): 0.828 L/kg
- Plasma concentrations of Pirfenidone ([2]; IV 40 mg/kg, 0.083 h, individual rats 1-3, 40 mg/kg): 34700 ng/mL and 33600 ng/mL
- Plasma concentrations of Pirfenidone ([2]; IV 40 mg/kg, 0.25 h, individual rats 1-3, 40 mg/kg): 29300 ng/mL and 25600 ng/mL
- Plasma concentrations of Pirfenidone ([2]; IV 40 mg/kg, 0.5 h, individual rats 1-3, 40 mg/kg): 19800 ng/mL and 16100 ng/mL
- Plasma concentrations of Pirfenidone ([2]; IV 40 mg/kg, 1 h, individual rats 1-3, 40 mg/kg): 6130 ng/mL and 9860 ng/mL and 4840 ng/mL
- Plasma concentrations of Pirfenidone ([2]; IV 40 mg/kg, 2 h, individual rats 1-3, 40 mg/kg): 394 ng/mL and 712 ng/mL and 225 ng/mL
- Plasma concentrations of Pirfenidone ([2]; IV 40 mg/kg, 4 h, individual rats 1-3, 40 mg/kg): 6.12 ng/mL and 3.57 ng/mL
- Plasma concentrations of Pirfenidone ([2]; IV 40 mg/kg, 8 h, individual rats 1-3, 40 mg/kg): BLOQ (Below lower limit of quantification (1 ng/mL))
- Plasma concentrations of Pirfenidone ([2]; IV 40 mg/kg, 24 h, individual rats 1-3): BLOQ (Below lower limit of quantification (1 ng/mL))
- AUC0-t [2, 3]: 27907 ng·h/mL and 21142 ng·h/mL
- AUC0-∞ [2, 3]: 27910 ng·h/mL and 21144 ng·h/mL
- AUMC0-t [2, 3]: 10270 h*h*ng/mL and 15155 h*h*ng/mL and 9021 h*h*ng/mL
- AUMC0-∞ [2, 3]: 10277.2 h*h*ng/mL and 15166.3 h*h*ng/mL and 9027.6 h*h*ng/mL
- CL(/F) [2, 3]: 31.17 mL/min/kg and 23.88 mL/min/kg and 31.53 mL/min/kg
- Cmax [2, 3]: 34700 ng/mL and 33600 ng/mL
- MRTINF [2, 3]: 32.6 min and 25.6 min
- T1/2 [2, 3]: 17 min and 17.3 min
- Vss (/F) [2, 3]: 0.898 L/kg and 0.779 L/kg and 0.808 L/kg
- AUMC0-∞, Mean ([2]; PO 40 mg/kg): 15669 h*h*ng/mL
- Plasma concentrations of Pirfenidone ([2]; PO 40 mg/kg, 0.25 h, individual rats 7-9, 40 mg/kg): 8330 ng/mL and 9540 ng/mL
- Plasma concentrations of Pirfenidone ([2]; PO 40 mg/kg, 0.5 h, individual rats 7-9, 40 mg/kg): 6700 ng/mL and 8820 ng/mL
- Plasma concentrations of Pirfenidone ([2]; PO 40 mg/kg, 1 h, individual rats 7-9, 40 mg/kg): 3540 ng/mL and 3570 ng/mL
- Plasma concentrations of Pirfenidone ([2]; PO 40 mg/kg, 2 h, individual rats 7-9, 40 mg/kg): 2000 ng/mL and 2140 ng/mL
- Plasma concentrations of Pirfenidone ([2]; PO 40 mg/kg, 4 h, individual rats 7-9, 40 mg/kg): 7.72 ng/mL and 830 ng/mL and 126 ng/mL
- Plasma concentrations of Pirfenidone ([2]; PO 40 mg/kg, 24 h, individual rats 7-9): BLOQ (Below lower limit of quantification (1 ng/mL))
- AUC0-t [2, 4]: 12787 ng·h/mL and 12172 ng·h/mL
- AUC0-∞ [2, 4]: 12820 ng·h/mL and 12353 ng·h/mL
- AUMC0-t [2, 4]: 9588 h*h*ng/mL and 20769 h*h*ng/mL and 14572 h*h*ng/mL
- AUMC0-∞ [2, 4]: 9604 h*h*ng/mL and 21076 h*h*ng/mL and 16326 h*h*ng/mL
- Cmax [2, 4]: 8330 ng/mL and 9540 ng/mL
- MRTINF [2, 4]: 98.64 min and 79.32 min
- T1/2 [2, 4]: 18.8 min and 57.5 min and 70.38 min
- Tmax ([2]; Sprague-Dawley, plasma, IV 40 mg/kg, read-out: Tmax, Mean): 4.98 min
- concentration at 0.083 h ([2]; Sprague-Dawley, rat, plasma, iv, 40 mg/kg, IV 40 mg/kg, 0.083 h, individual rats 1-3, read-out: Plasma concentrations of Pirfenidone): 32900 ng/mL
- concentration at 0.083 h ([2]; Sprague-Dawley, rat, plasma, iv, 40 mg/kg, IV 40 mg/kg, 0.083 h, read-out: Plasma concentrations of Pirfenidone, Mean): 33700 ng/mL
- concentration at 0.25 h ([2]; Sprague-Dawley, rat, plasma, iv, 40 mg/kg, IV 40 mg/kg, 0.25 h, individual rats 1-3, read-out: Plasma concentrations of Pirfenidone): 21400 ng/mL
- concentration at 0.25 h ([2]; Sprague-Dawley, rat, plasma, iv, 40 mg/kg, IV 40 mg/kg, 0.25 h, read-out: Plasma concentrations of Pirfenidone, Mean): 25400 ng/mL
- concentration at 0.5 h ([2]; Sprague-Dawley, rat, plasma, iv, 40 mg/kg, IV 40 mg/kg, 0.5 h, individual rats 1-3, read-out: Plasma concentrations of Pirfenidone): 15800 ng/mL
- concentration at 0.5 h ([2]; Sprague-Dawley, rat, plasma, iv, 40 mg/kg, IV 40 mg/kg, 0.5 h, read-out: Plasma concentrations of Pirfenidone, Mean): 17200 ng/mL
- concentration at 1 h ([2]; Sprague-Dawley, rat, plasma, iv, 40 mg/kg, IV 40 mg/kg, 1 h, read-out: Plasma concentrations of Pirfenidone, Mean): 6940 ng/mL
- concentration at 2 h ([2]; Sprague-Dawley, rat, plasma, iv, 40 mg/kg, IV 40 mg/kg, 2 h, read-out: Plasma concentrations of Pirfenidone, Mean): 444 ng/mL
- concentration at 4 h ([2]; Sprague-Dawley, rat, plasma, iv, 40 mg/kg, IV 40 mg/kg, 4 h, individual rats 1-3, read-out: Plasma concentrations of Pirfenidone): 4.27 ng/mL
- concentration at 4 h ([2]; Sprague-Dawley, rat, plasma, iv, 40 mg/kg, IV 40 mg/kg, 4 h, read-out: Plasma concentrations of Pirfenidone, Mean): 4.7 ng/mL
- concentration at 8 h ([2]; Sprague-Dawley, rat, plasma, iv, 40 mg/kg, IV 40 mg/kg, 8 h, individual rats 1-3, read-out: Plasma concentrations of Pirfenidone): 1.22 ng/mL
- concentration at 8 h ([2]; Sprague-Dawley, rat, plasma, iv, 40 mg/kg, IV 40 mg/kg, 8 h, read-out: Plasma concentrations of Pirfenidone, Mean): 1.22 ng/mL
- AUC0-t ([2]; Sprague-Dawley, rat, plasma, iv, 40 mg/kg, IV 40 mg/kg, read-out: AUC0-t, Mean): 23500 ng·h/mL
- AUC(0-inf) ([2]; Sprague-Dawley, rat, plasma, iv, 40 mg/kg, IV 40 mg/kg, read-out: AUC0-∞, Mean): 23500 ng·h/mL
- Cmax ([2]; Sprague-Dawley, rat, plasma, iv, 40 mg/kg, IV 40 mg/kg, read-out: Cmax, Mean): 33700 ng/mL
- MRT inf ([2]; Sprague-Dawley, rat, plasma, iv, 40 mg/kg, IV 40 mg/kg, read-out: MRTINF, Mean): 29 min
- half-life ([2]; Sprague-Dawley, rat, plasma, iv, 40 mg/kg, IV 40 mg/kg, read-out: T1/2, Mean (converted)): 21.4 min
- concentration at 0.25 h ([2]; Sprague-Dawley, rat, plasma, po, 40 mg/kg, PO 40 mg/kg, 0.25 h, individual rats 7-9, read-out: Plasma concentrations of Pirfenidone): 9130 ng/mL
- concentration at 0.25 h ([2]; Sprague-Dawley, rat, plasma, po, 40 mg/kg, PO 40 mg/kg, 0.25 h, read-out: Plasma concentrations of Pirfenidone, Mean): 9000 ng/mL
- concentration at 0.5 h ([2]; Sprague-Dawley, rat, plasma, po, 40 mg/kg, PO 40 mg/kg, 0.5 h, individual rats 7-9, read-out: Plasma concentrations of Pirfenidone): 8450 ng/mL
- concentration at 0.5 h ([2]; Sprague-Dawley, rat, plasma, po, 40 mg/kg, PO 40 mg/kg, 0.5 h, read-out: Plasma concentrations of Pirfenidone, Mean): 7990 ng/mL
- concentration at 1 h ([2]; Sprague-Dawley, rat, plasma, po, 40 mg/kg, PO 40 mg/kg, 1 h, individual rats 7-9, read-out: Plasma concentrations of Pirfenidone): 5110 ng/mL
- concentration at 1 h ([2]; Sprague-Dawley, rat, plasma, po, 40 mg/kg, PO 40 mg/kg, 1 h, read-out: Plasma concentrations of Pirfenidone, Mean): 4070 ng/mL
- concentration at 2 h ([2]; Sprague-Dawley, rat, plasma, po, 40 mg/kg, PO 40 mg/kg, 2 h, individual rats 7-9, read-out: Plasma concentrations of Pirfenidone): 1190 ng/mL
- concentration at 2 h ([2]; Sprague-Dawley, rat, plasma, po, 40 mg/kg, PO 40 mg/kg, 2 h, read-out: Plasma concentrations of Pirfenidone, Mean): 1780 ng/mL
- concentration at 4 h ([2]; Sprague-Dawley, rat, plasma, po, 40 mg/kg, PO 40 mg/kg, 4 h, read-out: Plasma concentrations of Pirfenidone, Mean): 321 ng/mL
- concentration at 8 h ([2]; Sprague-Dawley, rat, plasma, po, 40 mg/kg, PO 40 mg/kg, 8 h, read-out: Plasma concentrations of Pirfenidone, Mean): 65.3 ng/mL
- Cmax ([2]; Sprague-Dawley, rat, plasma, po, 40 mg/kg, PO 40 mg/kg, individual rats 7-9, read-out: Cmax): 9130 ng/mL
- MRT inf ([2]; Sprague-Dawley, rat, plasma, po, 40 mg/kg, PO 40 mg/kg, individual rats 7-9, read-out: MRTINF): 52 min
- AUC0-t ([2]; Sprague-Dawley, rat, serum, iv, 40 mg/kg, IV 40 mg/kg, individual rats 1-3, read-out: AUC0-t): 21400 ng·h/mL
- AUC(0-inf) ([2]; Sprague-Dawley, rat, serum, iv, 40 mg/kg, IV 40 mg/kg, individual rats 1-3, read-out: AUC0-∞): 21400 ng·h/mL
- Cmax ([2]; Sprague-Dawley, rat, serum, iv, 40 mg/kg, IV 40 mg/kg, individual rats 1-3, read-out: Cmax): 32900 ng/mL
- MRT inf ([2]; Sprague-Dawley, rat, serum, iv, 40 mg/kg, IV 40 mg/kg, individual rats 1-3, read-out: MRTINF): 28.8 min
- half-life ([2]; Sprague-Dawley, rat, serum, iv, 40 mg/kg, IV 40 mg/kg, individual rats 1-3, read-out: T1/2 (converted)): 30 min
- AUC0-t ([2]; Sprague-Dawley, rat, serum, po, 40 mg/kg, PO 40 mg/kg, individual rats 7-9, read-out: AUC0-t): 11100 ng·h/mL
- AUC(0-inf) ([2]; Sprague-Dawley, rat, serum, po, 40 mg/kg, PO 40 mg/kg, individual rats 7-9, read-out: AUC0-∞): 11100 ng·h/mL
- AUC0-t ([2]; Sprague-Dawley, rat, serum, po, 40 mg/kg, PO 40 mg/kg, read-out: AUC0-t, Mean): 12000 ng·h/mL
- AUC(0-inf) ([2]; Sprague-Dawley, rat, serum, po, 40 mg/kg, PO 40 mg/kg, read-out: AUC0-∞, Mean): 12100 ng·h/mL
- Cmax ([2]; Sprague-Dawley, rat, serum, po, 40 mg/kg, PO 40 mg/kg, read-out: Cmax, Mean): 9000 ng/mL
- MRT inf ([2]; Sprague-Dawley, rat, serum, po, 40 mg/kg, PO 40 mg/kg, read-out: MRTINF, Mean): 76.8 min
- half-life ([2]; Sprague-Dawley, rat, serum, po, 40 mg/kg, PO 40 mg/kg, read-out: T1/2, Mean (converted)): 48.9 min
- Tmax ([2]; Sprague-Dawley, serum, IV 40 mg/kg, individual rats 1-3, read-out: Tmax): 4.98 min
- bioavailability ([2]; Sprague-Dawley, serum, PO 40 mg/kg vs IV 40 mg/kg): 22.6%
- Tmax ([2]; Sprague-Dawley, serum, PO 40 mg/kg, read-out: Tmax, Mean): 15 min

From patent US12365651B2, “Use of pirfenidone and derivatives for modulation of B lymphocyte activity and organ protection from acute tissue damage” (Washington University, priority 2017, dated 2025)
